# Test results taken from US11267820B2, “Tricyclic fused pyridin-2-one derivatives and their use as BRD4 inhibitors” (JUBILANT BIOSYS LIMITED, priority 2015, dated 2022).
# Tested on: AML cell line MV4-11
# Assay: Anticancer activity: Alamar Blue 3-day proliferation assay
# Type: cell-based
# Conditions: Homo sapiens, MV4-11 cells, 72h, read-out: MV4-11 EC50_μM
# Experimental: The impact of the compounds on cancer cell proliferation was determined using the AML cell line MV4-11 (ATCC) in a 3-day proliferation assay. MV4-11 cells were maintained in RPMI supplemented with 10% FBS at 37° C., 5% CO2. For compound testing, MV4-11 cells were plated in a 96-well black bottom plate at a density of 15,000 cells/well in 100 μL culture media and incubated at 37° C. overnight. Compound dilution series were prepared in DMSO via a 3-fold serial dilution from 100 μM to 0.005 μM. The DMSO dilution series were then diluted with media, with the final compound concentrations added to the wells ranging from 10 μM to 0.0005 μM. […] The fluorescent readings from the Alamar Blue assay were normalized to the DMSO treated cells and analyzed using the GraphPad Prism software with siginoidal curve fitting to obtain EC50.
row,Structure (SMILES),EC50 [nM]
1,"CCNC(=O)CC1OC(c2ccc(Cl)cc2)c2c(sc(C)c2C)-c2cn(C)c(=O)cc21 (racemic) [bb, 2-(4-(4-chlorophenyl)-2,3,9-trimethyl-8-oxo-4,6,8,9-tetrahydrothieno[2′,3′:5,6]oxepino[4,3-c]pyridin-6-yl)-N-ethylacetamide]",< 0.5
2,"CCNC(=O)CC1N=C(c2ccc(Cl)cc2)c2cc(OC)ncc2-c2cn(C)c(=O)cc21 (racemic) [t, 2-(7-(4-chlorophenyl)-9-methoxy-2-methyl-3-oxo-3,5-dihydro-2H-dipyrido[4,3-c:3′,4′-e]azepin-5-yl)-N-ethylacetamide]",17
3,"CCOC(=O)CC1N=C(c2ccc(Cl)cc2)c2c(cnn2C)-c2cn(C)c(=O)cc21 (racemic) [w, Ethyl 2-(4-(4-chlorophenyl)-3,9-dimethyl-8-oxo-3,6,8,9-tetrahydropyrazolo[3,4-c]pyrido[3,4-e]azepin-6-yl)acetate]",26

# Second part, the molecule after the results:
row,EC50 [nM],Structure (SMILES)
1,430,"CCOC(=O)CC1N=C(c2ccc(Cl)cc2)c2nc(C)sc2-c2cn(C)c(=O)cc21 (racemic) [l, Ethyl 2-(4-(4-chlorophenyl)-2,9-dimethyl-8-oxo-8,9-dihydro-6H-pyrido[4,3-c]thiazolo[5,4-e]azepin-6-yl)acetate]"
2,< 0.5,"CCNC(=O)CC1OC(c2ccc(Cl)cc2)c2c(cnn2C)-c2cn(C)c(=O)cc21 (racemic) [ll, 2-(4-(4-chlorophenyl)-3,9-dimethyl-8-oxo-4,6,8,9-tetrahydro-3H-pyrazolo[4′,3′:5,6]oxepino[4,3-c]pyridin-6-yl)-N-ethylacetamide]"
3,140,"CCNC(=O)CC1N=C(c2ccc(Cl)cc2)c2nc(C)sc2-c2cn(C)c(=O)cc21 (racemic) [m, 2-(4-(4-chlorophenyl)-2,9-dimethyl-8-oxo-8,9-dihydro-6H-pyrido[4,3-c]thiazolo[5,4-e]azepin-6-yl)-N-ethylacetamide]"
4,157,"CCNC(=O)CC1N=C(CC2CC2)c2c(sc(C)c2C)-c2cn(C)c(=O)cc21 (racemic) [r, 2-(4-(cyclopropylmethyl)-2,3,9-trimethyl-8-oxo-8,9-dihydro-6H-pyrido[4,3-c]thieno[2,3-e]azepin-6-yl)-N-ethylacetamide]"
